The experiment has as its system BDF1 mice, P388 leukemia ip, median survival T/C. The experiment is described as follows: NCI In Vivo Anticancer Drug Screen. Data for tumor model P388 Leukemia (intraperitoneal) in B6D2F1 (BDF1) mice. The note with it: endpoint: median survival time, higher = longer survival. Put shortly: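 Steps: implant the tumour, treat one group with compound and another with vehicle, record survival, then divide treated by control.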

[1] abbreviates: dose: 50.0 mg/kg/injection, schedule: Q01DX009 (ip), vehicle: saline with Tween-80.
Where [2] appears, read: dose: 100.0 mg/kg/injection, schedule: Q01DX009 (ip), vehicle: saline with Tween-80.
[3] abbreviates: dose: 50.0 mg/kg/injection, schedule: Q04DX003 (ip), vehicle: Klucel (hydroxypropylcellulose) (HPC).
Setting [4] is: dose: 100.0 mg/kg/injection, schedule: Q04DX003 (ip), vehicle: Klucel (hydroxypropylcellulose) (HPC).
Where [5] appears, read: dose: 200.0 mg/kg/injection, schedule: Q04DX003 (ip), vehicle: Klucel (hydroxypropylcellulose) (HPC).
Where [6] appears, read: dose: 50.0 mg/kg/injection, schedule: Q01DX009 (ip), vehicle: saline.
The mark [7] stands for this setting: dose: 100.0 mg/kg/injection, schedule: Q01DX009 (ip), vehicle: saline.
The mark [8] stands for this setting: dose: 200.0 mg/kg/injection, schedule: Q04DX003 (ip), vehicle: saline.
Setting [9] is: dose: 200.0 mg/kg/injection, schedule: Q01DX009 (ip), vehicle: saline with Tween-80.
Setting [10] is: dose: 400.0 mg/kg/injection, schedule: Q04DX003 (ip), vehicle: Klucel (hydroxypropylcellulose) (HPC).

Where “and” joins values, the source holds several entries; their conditions need not be identical. Equal entries are not always repeated. Toxic doses and inconclusive results are not listed.

As for `C=C(C)C12OC3(c4ccccc4)OC1C1C4OC4(CO)C(O)C4(O)C(=O)C(C)=CC4C1(O3)C(C)C2OC(=O)/C=C/c1ccccc1` (stereo not given), the T/C (dose: 6.3 micrograms/kg/injection, schedule: Q## X009 (ip), vehicle: saline + alcohol) is 114 % of control; the T/C (dose: 12.5 micrograms/kg/injection, schedule: Q## X009 (ip), vehicle: saline + alcohol) was 110 % of control; the T/C (dose: 25.0 micrograms/kg/injection, schedule: Q## X009 (ip), vehicle: saline + alcohol) is 118 % of control; the T/C (dose: 50.0 micrograms/kg/injection, schedule: Q## X009 (ip), vehicle: saline + alcohol) is 109 % of control; the T/C (dose: 100.0 micrograms/kg/injection, schedule: Q## X009 (ip), vehicle: saline + alcohol) was 159 % of control; the T/C (dose: 200.0 micrograms/kg/injection, schedule: Q## X009 (ip), vehicle: saline + alcohol) is 173 % of control.
As for `CCCCS(=O)/C=C\C(=O)NCCC` (stereo not given), the T/C by setting is: (dose: 25.0 mg/kg/injection, schedule: Q01DX009 (ip), vehicle: saline with Tween-80) 100 % of control; under setting [1], 99 % of control; under setting [2], 100 % of control.
`COC(OC)C(=O)/C=C/C(C)COC1CCCCO1` (stereo not given): the T/C under setting [3] was 113 % of control, the T/C under setting [4] is 118 % of control and the T/C under setting [5] is 109 % of control.
On to `CC(C)C1C(=O)N2CCCC2C2(O)OC(NC(=O)C3C=C4c5cccc6[nH]cc(c56)CC4N(C)C3)(C(C)C)C(=O)N12` (stereo not given), for which the T/C was 109 % of control (dose: 12.5 mg/kg/injection, schedule: Q01DX009 (ip), vehicle: Klucel (hydroxypropylcellulose) (HPC)); 115 % of control (dose: 25.0 mg/kg/injection, schedule: Q01DX009 (ip), vehicle: saline); 91 % of control (dose: 25.0 mg/kg/injection, schedule: Q04DX003 (ip), vehicle: Klucel (hydroxypropylcellulose) (HPC)); 109 % of control (dose: 50.0 mg/kg/injection, schedule: Q01DX009 (ip), vehicle: Klucel (hydroxypropylcellulose) (HPC)); 110 % of control under setting [6]; 91 % of control under setting [3]. Also, the T/C (dose: 100.0 mg/kg/injection, schedule: Q01DX009 (ip), vehicle: Klucel (hydroxypropylcellulose) (HPC)) is 118 % of control; the T/C under setting [7] is 109 % of control and 120 % of control; the T/C under setting [4] was 104 % of control; the T/C under setting [5] was 100 % of control; the T/C under setting [8] was 120 % of control; the T/C (dose: 400.0 mg/kg/injection, schedule: Q04DX003 (ip), vehicle: saline) is 100 % of control.
On to `CC1SC(c2ccccc2)N(c2nccs2)C1=O` (stereo not given), for which the T/C under setting [1] is 103 % of control, the T/C under setting [2] is 89 % of control and the T/C under setting [9] was 99 % of control.
With `S=C(Cc1ccccc1)N1CCN(c2ccc(Cl)cc2)CC1`, the T/C reads like this: under setting [1], 104 % of control; under setting [2], 100 % of control; under setting [9], 100 % of control.
In the case of `COc1c(C(C)(C)C)cc([N+](=O)[O-])c(C)c1[N+](=O)[O-]`, the T/C is 100 % of control under setting [4], 100 % of control under setting [5] and 95 % of control under setting [10].
Turning to `N#Cc1cnn(CCO)c1N`, the T/C by setting is: (dose: 100.0 mg/kg/injection, schedule: Q01DX009 (ip), vehicle: water) 90 % of control; (dose: 100.0 mg/kg/injection, schedule: Q04DX003 (ip), vehicle: water) 100 % of control; (dose: 200.0 mg/kg/injection, schedule: Q01DX009 (ip), vehicle: water) 113 % of control; (dose: 200.0 mg/kg/injection, schedule: Q04DX003 (ip), vehicle: water) 100 % of control; (dose: 400.0 mg/kg/injection, schedule: Q01DX009 (ip), vehicle: water) 109 % of control; (dose: 400.0 mg/kg/injection, schedule: Q04DX003 (ip), vehicle: water) 104 % of control.
With `O=C1c2ccccc2CCCC12OC2c1ccccc1` (stereo not given), the T/C (dose: 75.0 mg/kg/injection, schedule: Q04DX003 (ip), vehicle: Klucel (hydroxypropylcellulose) (HPC)) was 95 % of control; the T/C (dose: 150.0 mg/kg/injection, schedule: Q04DX003 (ip), vehicle: Klucel (hydroxypropylcellulose) (HPC)) was 104 % of control; the T/C (dose: 300.0 mg/kg/injection, schedule: Q04DX003 (ip), vehicle: Klucel (hydroxypropylcellulose) (HPC)) is 90 % of control.
For `CCN1C=C/C(=C/c2cc3scc(-c4ccccc4)[n+]3c3ccccc23)c2ccccc21`, the T/C was 100 % of control (dose: 0.08 mg/kg/injection, schedule: Q01DX009 (ip), vehicle: saline); 108 % of control (dose: 0.16 mg/kg/injection, schedule: Q01DX009 (ip), vehicle: saline); 120 % of control (dose: 0.32 mg/kg/injection, schedule: Q01DX009 (ip), vehicle: saline).
In the case of `O=c1cc(-c2ccccc2)nc2ccccn12`, the T/C by setting is: (dose: 12.5 mg/kg/injection, schedule: Q01DX001 (ip), vehicle: saline with Tween-80) 109 % of control; (dose: 25.0 mg/kg/injection, schedule: Q01DX001 (ip), vehicle: saline with Tween-80) 104 % of control; (dose: 50.0 mg/kg/injection, schedule: Q01DX001 (ip), vehicle: saline with Tween-80) 123 % of control.
With `COc1ccc(OP2OCC(C)O2)cc1` (stereo not given), the T/C was 103 % of control under setting [1], 102 % of control under setting [2] and 102 % of control under setting [9].
Consider `Nc1ccc2ccccc2c1N=Nc1ccc(C(O)C(N)CO)cc1` (stereo not given), for which the T/C (dose: 6.25 mg/kg/injection, schedule: Q01DX009 (ip), vehicle: saline sonified) was 100 % of control; the T/C (dose: 12.5 mg/kg/injection, schedule: Q01DX009 (ip), vehicle: saline sonified) was 112 % of control; the T/C (dose: 25.0 mg/kg/injection, schedule: Q01DX009 (ip), vehicle: saline sonified) was 100 % of control.
As to `O=C(NNC(=O)C12CC3CC(CC(C3)C1)C2)c1ccncc1`, the T/C was 96 % of control under setting [1], 101 % of control under setting [2] and 92 % of control under setting [9].
`CCc1ccc(NC(=O)c2cccc(Cl)c2)cc1`: the T/C was 109 % of control (dose: 100.0 mg/kg/injection, schedule: Q04DX003 (ip), vehicle: saline with Tween-80); 109 % of control (dose: 200.0 mg/kg/injection, schedule: Q04DX003 (ip), vehicle: saline with Tween-80); 109 % of control (dose: 400.0 mg/kg/injection, schedule: Q04DX003 (ip), vehicle: saline with Tween-80).
`CC(CCC(=O)NC12CC3CC(CC(C3)C1)C2)C1CCC2C3CCC4CC(OC=O)CCC4(C)C3CC(OC=O)C12C` (stereo not given): the T/C is, setting by setting: (dose: 12.5 mg/kg/injection, schedule: Q04DX002 (ip), vehicle: saline with Tween-80) 91 % of control; (dose: 25.0 mg/kg/injection, schedule: Q04DX002 (ip), vehicle: saline with Tween-80) 110 % of control.
For `COc1ccc(NC(=O)Oc2ccc(-c3ccccc3)cc2Br)cc1`, the T/C under setting [4] was 91 % of control, the T/C under setting [5] is 95 % of control and the T/C under setting [10] is 91 % of control.
For `CN(C)C=Nc1cc(Cl)c(Cl)cc1Cl`, the T/C runs as follows: under setting [6], 100 % of control; under setting [7], 110 % of control; (dose: 200.0 mg/kg/injection, schedule: Q01DX009 (ip), vehicle: saline) 111 % of control.
For `OCC1OC(n2ccc3c2ncn2ccnc32)C(O)C1O` (stereo not given), the T/C is 110 % of control (dose: 25.0 mg/kg/injection, schedule: Q04DX003 (ip), vehicle: saline); 102 % of control (dose: 50.0 mg/kg/injection, schedule: Q04DX003 (ip), vehicle: saline); 96 % of control (dose: 100.0 mg/kg/injection, schedule: Q04DX003 (ip), vehicle: saline); 102 % of control under setting [8].
For the compound `[N-]=[N+]=CC(=O)NCC(=O)NN`, the T/C reads like this: (dose: 50.0 mg/kg/injection, schedule: Q01DX010 (ip), vehicle: water) 120 % of control; (dose: 200.0 mg/kg/injection, schedule: Q01DX010 (ip), vehicle: water) 166 % of control and 175 % of control; (dose: 400.0 mg/kg/injection, schedule: Q01DX010 (ip), vehicle: saline) 181 % of control.
Regarding `Br/C(C=Nc1ccccc1)=C\Nc1ccccc1`, the T/C under setting [2] was 100 % of control and the T/C under setting [9] was 110 % of control.
Regarding `Nc1ccccc1C(=O)Nc1ncn[nH]1`, the T/C under setting [1] was 96 % of control, the T/C under setting [2] was 90 % of control and the T/C under setting [9] is 94 % of control.

The values above are taken from PubChem BioAssay AID328 (DTP/NCI, 2004).
